Measurements published in PubChem BioAssay AID1919016 (Molecular Pharmacology Branch, DTP, NCI, 2023).
Values belong to the compound of their own block, whether it stands above or below them.

Test system: NCI-H196 complex spheroid growth, percent test/control
Assay: Anticancer human tumor NCI-H196 cell line growth inhibition [AhR];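 further: seven days of drug exposure starting three days after plating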;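 on viability, T/C: 100% = DMSO vehicle control wells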
Conditions: for IC50: curve of first compound; for viability, T/C: stronger effect = lower value
Source text: Multicellular complex tumor spheroid response to aryl hydrocarbon receptor antagonists in combination with a variety of drugs and investigational agents in selected tumor cell lines
The current study was undertaken to assess response to aryl hydrocarbon receptor antagonists in combination with standard-of-care drugs and investigational agents in solid tumor complex spheroid models. Complex spheroids include a stromal component modeled by human endothelial cells (HUVEC) and fibroblasts modeled by human mesenchymal stem cells (MSCs). The concentration ranges selected for each drug and investigational agent were based upon clinically achievable concentrations if the clinical Cmax of the agent was known.
Compounds. The drugs and investigational agents: BAY 2416964 (NSC825713), GNF351 (NSC835774), CH-223191 (NSC835775), CPI-455 (NSC825282), aza-TdCyd (NSC777586), decitabine (NSC127716), belinostat (NSC758774), entinostat (NSC756642), pevonedistat (NSC761192), tazemetostat (NSC777109), talazoparib (NSC765396), olaparib (NSC753686), selinexor (NSC780203), nedisertib (M3814, NSC802822), bortezomib (NSC756655), venetoclax (NSC766270), doxorubicin (NSC123127), elimusertib (BAY189344, NSC800525), ceralasertib (AZD6738, NSC777638), TAK-243 (NSC785004), alisertib (NSC759677), etoposide (NSC141540), topotecan (NSC609699), eribulin (NSC707389), gemcitabine (NSC613327), carboplatin (NSC241240), cisplatin (NSC119875), and SN-38 (NSC673596) were obtained from the National Cancer Institute (NCI) Developmental Therapeutics Program Chemical Repository (32). The FDA-approved anticancer drug set is available from the Developmental Therapeutics Program at https://dtp.cancer.gov/organization/dscb/obtaining/available plates.htm. […] The stock solutions were prepared in dimethyl sulfoxide (DMSO, Sigma-Aldrich, St. Louis, MO, cat. D2650), except for the platinum compounds which were prepared in saline (Quality Biological, Gaithersburg, MD, cat. 114-055-101), at 800-fold the tested concentration and stored at -70 degrees C prior to their use. All drugs and investigational agents were tested over a range starting from a high concentration at or near the clinical Cmax and decreasing in half-log increments. If the clinical Cmax for an agent had not been determined, the highest concentration tested was 10 microM (Table 1).
Cell Culture. All cells were maintained in an incubator at 37 degrees C and 5% CO2 with 95% humidity. The PDC lines were cultured according to standard operating procedures established by the NCI PDMR (https://pdmr.cancer.gov). Briefly, all PDCs were thawed and cultured in Matrigel-coated flasks prepared with a working solution of 1X Ham's F-12 nutrient mix, without supplementation (Invitrogen, Waltham, MA, cat. 11765054), 100 U/mL penicillin-streptomycin (Invitrogen, cat. 15140122), and 2.5% Matrigel (Corning Inc., Corning, NY, cat. 354248) for the first three passages. All PDCs were cultured in complete DMEM/F-12 media containing advanced DMEM/F-12 (Invitrogen, cat. 12634028), 4.9% defined fetal bovine serum, heat inactivated (HyClone Laboratories Inc., Logan, UT, cat. SH30070.03HI), 389 ng/mL hydrocortisone (Sigma-Aldrich, cat. H4001), 9.7 ng/mL human EGF recombinant protein (Invitrogen, cat. PHG0313), 23.4 microg/mL adenine (Sigma-Aldrich, cat. A2786), 97.3 U/mL penicillin-streptomycin (Invitrogen, cat. 15140122), 1.9 mM L-glutamine (Invitrogen, cat. 25030081), and 9.7 microM Y-27632 dihydrochloride (Tocris Bioscience, Bristol, United Kingdom, cat. 1254). The PDCs were cultured in complete DMEM/F12 media without 10 microM Y-27632 dihydrochloride for at least two passages prior to the screen. The established cell lines NCI-H1341 and […] were cultured in DMEM/F-12, HEPES (Invitrogen, cat. 11330032), 5% defined fetal bovine serum (HyClone Laboratories Inc., cat. SH30070.03), ITS premix universal culture supplement [insulin (5 microg/mL), transferrin (5 microg/mL), and selenious acid (5 ng/mL)] […]

[1] = second compound 0.1 µM, first compound 0.0316 µM
[2] = second compound 0.1 µM, first compound 0.1 µM
[3] = second compound 0.1 µM, first compound 0.316 µM
[4] = second compound 0.1 µM, first compound 1 µM
[5] = second compound 0.1 µM, first compound 3.16 µM
[6] = second compound 0.1 µM, first compound 10 µM
[7] = second compound 0.316 µM, first compound 0.0316 µM
[8] = second compound 0.316 µM, first compound 0.1 µM
[9] = second compound 0.316 µM, first compound 0.316 µM
[10] = second compound 0.316 µM, first compound 1 µM
[11] = second compound 0.316 µM, first compound 3.16 µM
[12] = second compound 0.316 µM, first compound 10 µM
[13] = second compound 1 µM, first compound 0.0316 µM
[14] = second compound 1 µM, first compound 0.1 µM
[15] = second compound 1 µM, first compound 0.316 µM
[16] = second compound 1 µM, first compound 1 µM
[17] = second compound 1 µM, first compound 3.16 µM
[18] = second compound 1 µM, first compound 10 µM
[19] = second compound 3.16 µM, first compound 0.0316 µM
[20] = second compound 3.16 µM, first compound 0.1 µM
[21] = second compound 3.16 µM, first compound 0.316 µM
[22] = second compound 3.16 µM, first compound 1 µM
[23] = second compound 3.16 µM, first compound 3.16 µM
[24] = second compound 3.16 µM, first compound 10 µM
[25] = second compound 10 µM, first compound 0.0316 µM
[26] = second compound 10 µM, first compound 0.1 µM
[27] = second compound 10 µM, first compound 0.316 µM
[28] = second compound 10 µM, first compound 1 µM
[29] = second compound 10 µM, first compound 3.16 µM
[30] = second compound 10 µM, first compound 10 µM

IC50 (second compound 0.1 µM): 0.0334 µM
IC50 (second compound 0.316 µM): 0.0366 µM
IC50 (second compound 1 µM): 0.0348 µM
IC50 (second compound 3.16 µM): 0.0354 µM
IC50 (second compound 10 µM): 0.0413 µM
Compound: O=C(C=Cn1cnc(-c2cc(C(F)(F)F)cc(C(F)(F)F)c2)n1)NNc1cnccn1 + Cc1ccccc1N=Nc1ccc(NC(=O)c2ccnn2C)c(C)c1
viability, T/C (second compound 0.1 µM, first compound 0.00949 µM): 71.3%
viability, T/C (second compound 0.1 µM, first compound 0.03 µM): 54.5%
viability, T/C (second compound 0.1 µM, first compound 0.0949 µM): 6.66%
viability, T/C (second compound 0.1 µM, first compound 0.3 µM): 6.81%
viability, T/C (second compound 0.1 µM, first compound 0.949 µM): 5.42%
viability, T/C (second compound 0.1 µM, first compound 3 µM): 7.76%
viability, T/C (second compound 0.316 µM, first compound 0.00949 µM): 72.7%
viability, T/C (second compound 0.316 µM, first compound 0.03 µM): 58.6%
viability, T/C (second compound 0.316 µM, first compound 0.0949 µM): 8.61%
viability, T/C (second compound 0.316 µM, first compound 0.3 µM): 5.66%
viability, T/C (second compound 0.316 µM, first compound 0.949 µM): 6.01%
viability, T/C (second compound 0.316 µM, first compound 3 µM): 6.07%
viability, T/C (second compound 1 µM, first compound 0.00949 µM): 79.8%
viability, T/C (second compound 1 µM, first compound 0.03 µM): 56%
viability, T/C (second compound 1 µM, first compound 0.0949 µM): 9.47%
viability, T/C (second compound 1 µM, first compound 0.3 µM): 5.55%
viability, T/C (second compound 1 µM, first compound 0.949 µM): 8.58%
viability, T/C (second compound 1 µM, first compound 3 µM): 8.52%
viability, T/C (second compound 3.16 µM, first compound 0.00949 µM): 68.4%
viability, T/C (second compound 3.16 µM, first compound 0.03 µM): 56.8%
viability, T/C (second compound 3.16 µM, first compound 0.0949 µM): 9.86%
viability, T/C (second compound 3.16 µM, first compound 0.3 µM): 4.79%
viability, T/C (second compound 3.16 µM, first compound 0.949 µM): 7.89%
viability, T/C (second compound 3.16 µM, first compound 3 µM): 8.09%
viability, T/C (second compound 10 µM, first compound 0.00949 µM): 74.6%
viability, T/C (second compound 10 µM, first compound 0.03 µM): 64%
viability, T/C (second compound 10 µM, first compound 0.0949 µM): 13.8%
viability, T/C (second compound 10 µM, first compound 0.3 µM): 10.6%
viability, T/C (second compound 10 µM, first compound 0.949 µM): 8.84%
viability, T/C (second compound 10 µM, first compound 3 µM): 12.8%

IC50 (second compound 0.1 µM): > 10 µM
IC50 (second compound 0.316 µM): > 10 µM
IC50 (second compound 1 µM): > 10 µM
IC50 (second compound 3.16 µM): > 10 µM
IC50 (second compound 10 µM): > 10 µM
Compound: CC1COCCN1c1cc(C2(S(C)(=N)=O)CC2)nc(-c2ccnc3[nH]ccc23)n1 (stereo not given) + CC(CO)NC(=O)c1cc(-c2ccc(Cl)cc2)nn(-c2cnn(C)c2)c1=O
viability, T/C [1]: 106%
viability, T/C [2]: 115%
viability, T/C [3]: 98.6%
viability, T/C [4]: 117%
viability, T/C [5]: 101%
viability, T/C [6]: 87%
viability, T/C [7]: 103%
viability, T/C [8]: 110%
viability, T/C [9]: 114%
viability, T/C [10]: 104%
viability, T/C [11]: 89.8%
viability, T/C [12]: 91.1%
viability, T/C [13]: 113%
viability, T/C [14]: 114%
viability, T/C [15]: 114%
viability, T/C [16]: 109%
viability, T/C [17]: 100%
viability, T/C [18]: 85.8%
viability, T/C [19]: 119%
viability, T/C [20]: 126%
viability, T/C [21]: 106%
viability, T/C [22]: 111%
viability, T/C [23]: 99.3%
viability, T/C [24]: 83.8%
viability, T/C [25]: 113%
viability, T/C [26]: 115%
viability, T/C [27]: 109%
viability, T/C [28]: 120%
viability, T/C [29]: 103%
viability, T/C [30]: 81.8%

IC50 (second compound 0.1 µM): > 10 µM
IC50 (second compound 0.316 µM): > 10 µM
IC50 (second compound 1 µM): > 10 µM
IC50 (second compound 3.16 µM): > 10 µM
IC50 (second compound 10 µM): > 10 µM
Compound: CC1COCCN1c1cc(C2(S(C)(=N)=O)CC2)nc(-c2ccnc3[nH]ccc23)n1 (stereo not given) + Cc1ccccc1N=Nc1ccc(NC(=O)c2ccnn2C)c(C)c1
viability, T/C [1]: 98.5%
viability, T/C [2]: 101%
viability, T/C [3]: 98.8%
viability, T/C [4]: 101%
viability, T/C [5]: 81.5%
viability, T/C [6]: 69.7%
viability, T/C [7]: 99.3%
viability, T/C [8]: 102%
viability, T/C [9]: 99.2%
viability, T/C [10]: 92.5%
viability, T/C [11]: 80.5%
viability, T/C [12]: 72.6%
viability, T/C [13]: 96.3%
viability, T/C [14]: 104%
viability, T/C [15]: 101%
viability, T/C [16]: 94%
viability, T/C [17]: 87.7%
viability, T/C [18]: 70%
viability, T/C [19]: 96.2%
viability, T/C [20]: 99.1%
viability, T/C [21]: 97.4%
viability, T/C [22]: 88.6%
viability, T/C [23]: 81.8%
viability, T/C [24]: 74%
viability, T/C [25]: 85.7%
viability, T/C [26]: 93.1%
viability, T/C [27]: 101%
viability, T/C [28]: 89.7%
viability, T/C [29]: 78.3%
viability, T/C [30]: 76.6%
